From patent publication US12655174B2, “Adenosine A3 receptor agonists, preparation methods and uses thereof” (ZHEJIANG VIMGREEN PHARMACEUTICALS, LTD., priority 2020, dated 2026)

Columns and labels:
[1] = biological target: T1, ADORA3 receptor (CHO cells stably expressing ADORA3 receptor) (Homo sapiens, UniProt P0DMS8); assay: Effect of compound on intracellular cAMP level by adenosine A3 receptor agonism; assay type: cell-based; settings: forskolin-stimulated
T1 construct: expressed in transfected cells
T1 sequence (P0DMS8 1-318): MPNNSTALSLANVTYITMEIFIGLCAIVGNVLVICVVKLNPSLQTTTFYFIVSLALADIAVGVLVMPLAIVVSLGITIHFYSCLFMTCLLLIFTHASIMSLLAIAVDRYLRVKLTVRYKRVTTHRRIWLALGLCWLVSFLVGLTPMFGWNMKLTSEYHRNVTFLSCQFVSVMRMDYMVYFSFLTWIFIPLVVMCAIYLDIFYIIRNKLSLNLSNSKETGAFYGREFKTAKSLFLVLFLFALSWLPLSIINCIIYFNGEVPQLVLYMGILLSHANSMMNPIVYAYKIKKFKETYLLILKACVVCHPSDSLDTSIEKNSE
Procedure, shortened: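 Agonism read as change in forskolin-stimulated cAMP by TR-FRET competition (Eu-cAMP tracer, ULight anti-cAMP antibody). Compound tested as 10 three-fold dilutions on ADORA3-CHO cells in buffer containing rolipram, incubated at 37 °C. Hill fit of % activation against log concentration gives EC50.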

[2] = Pharmacokinetic test of compound in SD rat; assay type: in vivo; settings: SD rats, intragastric administration (IG), cassette dosing
Method: Example 28: Pharmacokinetic Test of Compound in SD Rat
The animal species used in this experiment were SD rats. There were 3 animals per group. The rats were dosed in cassette format, i.e., multiple (1-6) different compounds were dosed simultaneously to the same group of the SD rats. The vehicle used for the drug was 5% DMSO+5% Solutl+90% ([…] methylcellulose M450), and the administration route was intragastric administration (IG).

ADORA3 receptor = biological target: T2, ADORA3 receptor (Homo sapiens, UniProt P0DMS8); assay: Agonistic effect on adenosine A3 receptor by FLIPR assay (calcium flux assay); assay type: cell-based; settings: agonist mode
T2 sequence (P0DMS8 1-318): T1 sequence (P0DMS8 1-318)
Method: Example 27: Agonistic Effect of Compound on Adenosine A3 Receptor by FLIPR Assay (Calcium Flux Assay)
First Day: Cell Inoculation
• 1) With regard to ADORA3 receptor, cultured cells were used for inoculation: the culture medium was aspirated and the cells were washed twice with 10 mL of DPBS. 2 mL of 0.05% EDTA-trypsin was added and the cells were incubated at 37° C. for 1 minute. Then 10 mL of the culture medium was added to stop the digestion and the cell suspension was transferred to a 50-mL tapered tube. • 2) The 50-mL tapered tube containing the various cells was centrifuged at 300 g for 5 minutes. • 3) A supernatant was aspirated and no cells should be aspirated. • 4) The cell precipitate was resuspended in 6-8 mL of the culture medium, and then 0.5 mL of the cells were taken out for cell counting by using a Vi-cell XR cell viability analyzer. • 5) The cell suspension was diluted to 1×10^6 cells/mL (20 μL of 20,000 cells per well) in the culture medium and the cells were inoculated into a cell plate (384-well Poly-D-lysine protein-coated plate, Greiner-781946). • 6) The plate was placed in a 37° C./5% CO2 incubator for 16-20 hours. Second Day: • 1) Preparation of 2×Fluo-4 Direct™ uptaking dye • a. Preparation of probenecid solution • 1 mL of FLIPR assay buffer was added to 77 mg of probenecid (provided by Fluo-4 Direct™ calcium assay kit) to be prepared into 250 mM of a probenecid solution. The fresh probenecid solution was used daily. • b. 2×(8 μM) Fluo-4 Direct™ loading dye (per 10 mL)
A vial of the Fluo-4 Direct™ crystal was thawed and then 10 mL of the FLTPR analytical buffer was added to the vial. Then 0.2 mL of 250 mM of a probe solution was added to every 10 mL Fluo-4 Direct™ crystal to a final assay concentration of 2.5 mM. The solution was vortexed and stood for >5 min at a dark place. 2×Fluo-4 Direct™ uptaking dye was freshly prepared daily. • 2) Compound preparation • a. Preparation of compound plate: all reference and test compounds were serially diluted 4-fold in 10 points by using an Echo liquid processor and then 900 nL of the diluted compounds were transferred to a compound plate. • b. 30 μL FLIPR analytical buffer was added to the compound plate and the plate was centrifuged at 300 g for 1 minute. • 3) FLIPR analysis • a. With regard to ADORA3 receptor: firstly, the cell plate was taken out from a culture box. The culture medium was then aspirated and 20 μL of the FLIPR analytical buffer was added. The cell plate was placed in an incubator for 45 minutes and at a room temperature for 15 minutes. • b. To run an experimental solution on […], 10 μL of the FLIPR analytical buffer was transferred from the compound plate to a cell plate, and then the fluorescent signal was read. Then 10 μL of a compound solution was transferred from the compound plate to the cell plate and the fluorescence signal was read. “Max−min” was calculated from Reader 91 to an allowed maximum value. • c. With regard to agonist: activation %=(RLU−LC)/(HC−LC)*100, • wherein RLU=relative light unit, allowed maximum signal was 91; HC=average signal of high concentration agonist; and LC=mean signal of DMSO well. • d. Data were fitted to a model “log (agonist) versus response-variable slope” by using GraphPad Prism 5 to determine an EC50 value. • e. […] 2. Test Result

Compound	EC50 [1] [nM]	AUC_D [2] [kg·ng·h/mL/mg]	EC50 (ADORA3 receptor) [nM]
CNC(=O)[C@H]1O[C@@H](n2cnc3c(NCc4cccc(C)n4)nc(-c4cncc(F)c4)nc32)[C@H](O)[C@@H]1O [compound 106]	3.02	521.57	17.6
CNC(=O)[C@H]1O[C@@H](n2cnc3c(NCc4cccc(C)n4)nc(-c4cncc(Cl)c4)nc32)[C@H](O)[C@@H]1O [compound 112]	3.53	1790.18	44.4
CNC(=O)[C@H]1O[C@@H](n2cnc3c(NCc4cccc(OC)n4)nc(-c4cncc(Cl)c4)nc32)[C@H](O)[C@@H]1O [compound 159]	4.42	–	59.3
CNC(=O)[C@H]1O[C@@H](n2cnc3c(NCc4cc(C)ccc4Cl)nc(-c4cncc(Cl)c4)nc32)[C@H](O)[C@@H]1O [compound 177, (2S,3S,4R,5R)-5-(6-(2-chloro-5-methylbenzylamino)-2-(5-chloropyridin-3-yl)-9H-purin-9-yl)-3,4-dihydroxyl-N-methyl-tetrahydrofuran-2-formamide]	2.08	5247.70	70.3
CNC(=O)[C@H]1O[C@@H](n2cnc3c(NCc4cc(C)ccn4)nc(-c4cccnc4)nc32)[C@H](O)[C@@H]1O [compound 186, (2S,3S,4R,5R)-3,4-dihydroxyl-N-methyl-5-(6-((4-methylpyridin-2-yl)methylamino)-2-(pyridin-3-yl)-9H-purin-9-yl)-tetrahydrofuran-2-formamide]	< 0.51	786.27	11.8
CNC(=O)[C@H]1O[C@@H](n2cnc3c(NCc4cc(C)ccn4)nc(-c4cncc(C)c4)nc32)[C@H](O)[C@@H]1O [compound 190, (2S,3S,4R,5R)-3,4-dihydroxyl-N-methyl-5-(6-((4-methylpyridin-2-yl)methylamino)-2-(5-methylpyridin-3-yl)-9H-purin-9-yl)-tetrahydrofuran-2-formamide]	–	2205.59	9.06
CNC(=O)[C@H]1O[C@@H](n2cnc3c(NCc4cc(C)ccc4F)nc(-c4cccnc4)nc32)[C@H](O)[C@@H]1O [compound 191, (2S,3S,4R,5R)-5-(6-(2-fluoro-5-methylbenzylamino)-2-(pyridin-3-yl)-9H-purin-9-yl)-3,4-dihydroxyl-N-methyl-tetrahydrofuran-2-formamide]	–	1183.39	5.29
CNC(=O)[C@H]1O[C@@H](n2cnc3c(NCc4cc(C)ccc4F)nc(-c4cncc(F)c4)nc32)[C@H](O)[C@@H]1O [compound 192, (2S,3S,4R,5R)-5-(6-(2-fluoro-5-methylbenzylamino)-2-(5-fluoropyridin-3-yl)-9H-purin-9-yl)-3,4-dihydroxyl-N-methyl-tetrahydrofuran-2-formamide]	–	3329.08	9.24
CNC(=O)[C@H]1O[C@@H](n2cnc3c(NCc4cc(C)ccc4F)nc(-c4cncc(C)c4)nc32)[C@H](O)[C@@H]1O [compound 193, (2S,3S,4R,5R)-5-(6-(2-fluoro-5-methylbenzylamino)-2-(5-methylpyridin-3-yl)-9H-purin-9-yl)-3,4-dihydroxyl-N-methyl-tetrahydrofuran-2-formamide]	–	2969.40	10.9
CNC(=O)[C@H]1O[C@@H](n2cnc3c(NCc4cc(C)ccc4F)nc(-c4cncc(OC)c4)nc32)[C@H](O)[C@@H]1O [compound 194, (2S,3S,4R,5R)-5-(6-(2-fluoro-5-methylbenzylamino)-2-(5-methoxypyridin-3-yl)-9H-purin-9-yl)-3,4-dihydroxyl-N-methyl-tetrahydrofuran-2-formamide]	–	2043.13	10.7
CNC(=O)[C@H]1O[C@@H](n2cnc3c(NCc4cc(C)cc(C)c4)nc(-c4cncc(C)c4)nc32)[C@H](O)[C@@H]1O [compound 231, (2S,3S,4R,5R)-5-(6-((3,5-dimethylbenzyl)amino)-2-(5-methylpyridin-3-yl)-9H-purin-9-yl)-3,4-dihydroxyl-N-methyltetrahydrofuran-2-carboxamide]	–	17240.04	11.2

Now from value to molecule:

EC50 [1] [nM]	AUC_D [2] [kg·ng·h/mL/mg]	EC50 (ADORA3 receptor) [nM]	Compound
2.73	161.47	10.9	CNC(=O)[C@H]1OC(n2cnc3c(NCc4ccccn4)nc(-c4cncc(F)c4)nc32)[C@H](O)[C@@H]1O (stereo in doubt) [compound 305, (2S,3S,4R,5S)-5-(2-(5-fluoropyridin-3-yl)-6-((pyridin-2-ylmethyl)amino)-9H-purin-9-yl)-3,4-dihydroxyl-N-methyltetrahydrofuran-2-carboxamide]
< 0.51	757.44	1.93	CNC(=O)[C@H]1O[C@@H](n2cnc3c(NCc4cc(C)ccn4)nc(-c4cncc(F)c4)nc32)[C@H](O)[C@@H]1O [compound 71, (2S,3S,4R,5R)-5-(2-(5-fluoropyridin-3-yl)-6-(((4-methylpyridin-2-yl)methyl)amino)-9H-purin-9-yl)-3,4-dihydroxyl-N-methyltetrahydrofuran-2-carboxamide]
< 0.51	947.63	9.07	CNC(=O)[C@H]1O[C@@H](n2cnc3c(NCc4cc(Cl)ccn4)nc(-c4cncc(F)c4)nc32)[C@H](O)[C@@H]1O [compound 183, (2S,3S,4R,5R)-5-(6-((4-chloropyridin-2-yl)methylamino)-2-(5-fluoropyridin-3-yl)-9H-purin-9-yl)-3,4-dihydroxyl-N-methyl-tetrahydrofuran-2-formamide]
< 0.51	–	13	CNC(=O)[C@H]1O[C@@H](n2cnc3c(NCc4cc(Cl)ccn4)nc(-c4cncc(Cl)c4)nc32)[C@H](O)[C@@H]1O [compound 184, (2S,3S,4R,5R)-5-(6-((4-chloropyridin-2-yl)methylamino)-2-(5-chloropyridin-3-yl)-9H-purin-9-yl)-3,4-dihydroxyl-N-methyl-tetrahydrofuran-2-formamide]
–	233.07	3.53	CNC(=O)[C@H]1O[C@@H](n2cnc3c(NCc4cccc(Cl)n4)nc(-c4cncc(F)c4)nc32)[C@H](O)[C@@H]1O [compound 227, (2S,3S,4R,5R)-5-(6-(((6-chloropyridin-2-yl)methyl)amino)-2-(5-fluoropyridin-3-yl)-9H-purin-9-yl)-3,4-dihydroxyl-N-methyltetrahydrofuran-2-carboxamide]
1.28	–	53.6	CNC(=O)[C@H]1O[C@@H](n2cnc3c(NCc4cc(OC)ccn4)nc(-c4cncc(Cl)c4)nc32)[C@H](O)[C@@H]1O [compound 296, (2S,3S,4R,5R)-5-(2-(5-chloropyridin-3-yl)-6-(((4-methoxypyridin-2-yl)methyl)amino)-9H-purin-9-yl)-3,4-dihydroxyl-N-methyltetrahydrofuran-2-carboxamide]
